Data on one molecule can be found in PMC6627779, “Experimental Approaches and Computational Modeling of Rat Serum Albumin and Its Interaction with Piperine” (International Journal of Molecular Sciences, 2019).

This assay has as its target T1, rat serum albumin (RSA) (Rattus norvegicus, UniProt P02770).
T1 construct: gene Alb
The experiment in a line: Trp214 fluorescence quenching titration (steady-state, double-log Ka; IDF/Scatchard Kb […] ^−[…]), static mechanism confirmed by time-resolved fluorescence. It is filed as binding. The settings on record: read-out: Ka (×10^4 M^-1) (converted).

T1 sequence (P02770 25-608): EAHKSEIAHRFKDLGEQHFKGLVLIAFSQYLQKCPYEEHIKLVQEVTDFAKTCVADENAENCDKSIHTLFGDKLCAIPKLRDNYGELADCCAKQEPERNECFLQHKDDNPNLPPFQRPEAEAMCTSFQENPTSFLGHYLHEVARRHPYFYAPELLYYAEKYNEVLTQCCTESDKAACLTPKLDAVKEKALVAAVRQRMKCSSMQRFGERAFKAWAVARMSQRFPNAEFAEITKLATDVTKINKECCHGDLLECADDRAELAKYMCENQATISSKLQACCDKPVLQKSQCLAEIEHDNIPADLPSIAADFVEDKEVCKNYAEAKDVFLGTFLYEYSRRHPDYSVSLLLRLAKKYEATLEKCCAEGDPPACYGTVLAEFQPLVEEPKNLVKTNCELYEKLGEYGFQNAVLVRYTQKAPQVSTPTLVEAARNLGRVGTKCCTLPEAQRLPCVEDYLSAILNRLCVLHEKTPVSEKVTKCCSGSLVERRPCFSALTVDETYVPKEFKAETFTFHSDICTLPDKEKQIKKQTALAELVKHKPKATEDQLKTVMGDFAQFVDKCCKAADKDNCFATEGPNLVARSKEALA

Turning to `O=C(/C=C/C=C/c1ccc2c(c1)OCO2)N1CCCCC1` [piperine], the Kd was 25.6 µM.
